Tests used:
[1] = test system: normal NK cells expanded with K562-aAPC; test: percent inhibition of viability; higher = more inhibition; details: 72 h, IL-2 2.5 ng/mL
Description: (§1)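 Drug sensitivity and resistance testing on K562-aAPC-expanded normal NK cells: 5 concentrations (10-fold steps over a 10,000-fold range), 72 h at 37 °C, viability by CellTiter-Glo normalised to DMSO and benzethonium chloride controls; DSS from the fitted curve.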

[2] = test system: normal primary NK cells, pool 2 (3 donors) (IL-2 2.5 ng/mL); test: as above; details: 72 h
IMC-1 (IL-2 20 ng/mL) [3] = test: as above; details: 72 h
[4] = test system: normal primary NK cells, pool 3 (3 donors) (IL-2 2.5 ng/mL); test: as above; details: 72 h
[5] = test system: normal primary NK cells, pool 2 (3 donors) (IL-2 2.5 ng/mL); test: drug sensitivity score (DSS) (DSS units); higher = more sensitive; extreme values may be limits of the assay; details: 72 h
IMC-1 (IL-2 20 ng/mL) [6] = test: as above; details: 72 h
[7] = test system: normal primary NK cells, pool 3 (3 donors) (IL-2 2.5 ng/mL); test: as above; details: 72 h
[8] = test system: normal NK cells expanded with K562-aAPC; test: as above; details: 72 h; IL-2 2.5 ng/mL
Description: as §1

[9] = test system: normal primary NK cells, pool 1 (3 donors) (IL-2 2.5 ng/mL); test: percent inhibition of viability; higher = more inhibition; details: 72 h
KAI3 (IL-2 2.5 ng/mL) [10] = test: as above; details: 72 h
NK-YS (IL-2 2.5 ng/mL) [11] = test: as above; details: 72 h
KHYG-1 (IL-2 2.5 ng/mL) [12] = test: as above; details: 72 h
SNK-6 (IL-2 2.5 ng/mL) [13] = test: as above; details: 72 h
YT (IL-2 2.5 ng/mL) [14] = test: as above; details: 72 h
DERL-7 (IL-2 2.5 ng/mL) [15] = test: as above; details: 72 h
[16] = test system: normal primary NK cells, pool 1 (3 donors), resting (IL-2 0 ng/mL); test: as above; details: 72 h
NK-92 (IL-2 2.5 ng/mL) [17] = test: as above; details: 72 h
NKL (IL-2 2.5 ng/mL) [18] = test: as above; details: 72 h
[19] = test system: normal primary NK cells, pool 1 (3 donors) (IL-2 2.5 ng/mL); test: drug sensitivity score (DSS) (DSS units); higher = more sensitive; extreme values may be limits of the assay; details: 72 h
KAI3 (IL-2 2.5 ng/mL) [20] = test: as above; details: 72 h
NK-YS (IL-2 2.5 ng/mL) [21] = test: as above; details: 72 h
KHYG-1 (IL-2 2.5 ng/mL) [22] = test: as above; details: 72 h
SNK-6 (IL-2 2.5 ng/mL) [23] = test: as above; details: 72 h
YT (IL-2 2.5 ng/mL) [24] = test: as above; details: 72 h
DERL-7 (IL-2 2.5 ng/mL) [25] = test: as above; details: 72 h
[26] = test system: normal primary NK cells, pool 1 (3 donors), resting (IL-2 0 ng/mL); test: as above; details: 72 h
NK-92 (IL-2 2.5 ng/mL) [27] = test: as above; details: 72 h
NKL (IL-2 2.5 ng/mL) [28] = test: as above; details: 72 h

CC(C)n1nc(-c2ccc3oc(N)nc3c2)c2c(N)ncnc21 [MLN-0128] (max concentration tested 1000 nM)
percent inhibition of viability [%]
Details	0.1 nM	1 nM	10 nM	100 nM	1000 nM
IMC-1 (IL-2 20 ng/mL) [3]	-2.42	-1.34	-16.7	-30.3	19.6
[1]	-6.08	-1.99	18	40.5	44.1
[2]	-8.27	4.32	23.5	28	36.7
[4]	-6.15	0.85	15.6	13.5	35.5

Details	drug sensitivity score
IMC-1 (IL-2 20 ng/mL) [6]	0.2
[5]	8.27
[7]	3.64
[8]	9.64

c1cc(CN2CCCNCCNCCCNCC2)ccc1CN1CCCNCCNCCCNCC1 [Plerixafor] (max concentration tested 10000 nM)
percent inhibition of viability [%]
Details	1 nM	10 nM	100 nM	1000 nM	10000 nM
IMC-1 (IL-2 20 ng/mL) [3]	-6.62	-2.25	-2.63	-6.11	12
[1]	-8.84	-11.8	-6.04	-7.74	-11.7
[2]	-13.2	-6.73	-6.7	-15	-10.7
[4]	-11.8	-3.1	-2.77	-16.3	-17.5

Details	drug sensitivity score
IMC-1 (IL-2 20 ng/mL) [6]	0.01
[5]	0
[7]	0
[8]	0

N.N.[Cl][Pt][Cl] [Cisplatin] (max concentration tested 100000 nM)
percent inhibition of viability [%]
Details	10 nM	100 nM	1000 nM	10000 nM	100000 nM
IMC-1 (IL-2 20 ng/mL) [3]	0.88	-0.16	84.2	100	100
[1]	2.08	1.39	16.1	62.8	99.8
[2]	-10.5	-3.22	-1.72	25.3	92.7
[4]	-4.27	1.37	-2.08	24	96.7

Details	drug sensitivity score
IMC-1 (IL-2 20 ng/mL) [6]	27.8
[5]	8.93
[7]	9.04
[8]	14.1

CCN(CC)CCCC(C)Nc1ccnc2cc(Cl)ccc12 (stereo not drawn) [Chloroquine] (max concentration tested 100000 nM)
percent inhibition of viability [%]
Details	10 nM	100 nM	1000 nM	10000 nM	100000 nM
IMC-1 (IL-2 20 ng/mL) [3]	-9.53	-2.15	-3.29	-3.07	99.8
[1]	-7.98	-8.65	-3.82	76	101
[2]	-5.74	2.44	3.84	28.9	101
[4]	-6.29	3.82	7.92	52.1	101

Details	drug sensitivity score
IMC-1 (IL-2 20 ng/mL) [6]	5.31
[5]	9.79
[7]	11.8
[8]	14.2

CC(C)n1nc(-c2ccc3oc(N)nc3c2)c2c(N)ncnc21 [INK128] (max concentration tested 1000 nM)
percent inhibition of viability [%]
Details	DERL-7 (IL-2 2.5 ng/mL) [15]	KAI3 (IL-2 2.5 ng/mL) [10]	KHYG-1 (IL-2 2.5 ng/mL) [12]	NK-92 (IL-2 2.5 ng/mL) [17]	NK-YS (IL-2 2.5 ng/mL) [11]	NKL (IL-2 2.5 ng/mL) [18]	SNK-6 (IL-2 2.5 ng/mL) [13]	YT (IL-2 2.5 ng/mL) [14]	[9]	[16]
0.1 nM	-4.21	-5.24	-4.72	-2.13	-11.2	0.39	-24	-1.84	-6.36	-19.8
1 nM	-1.17	-1.02	1.98	9.63	-5.11	1.73	-3.64	1.95	5.5	6.92
10 nM	39.4	24.1	3.77	22.5	6.74	38.8	15.8	15.8	19.8	15.4
100 nM	76.1	54.6	33	60.8	51.9	63.9	45.9	65.5	31.3	17.9
1000 nM	91.4	70.3	83.9	74.7	71.6	70.2	41.9	78	40.5	34.9

Details	drug sensitivity score
DERL-7 (IL-2 2.5 ng/mL) [25]	19.2
KAI3 (IL-2 2.5 ng/mL) [20]	13.1
KHYG-1 (IL-2 2.5 ng/mL) [22]	8.73
NK-92 (IL-2 2.5 ng/mL) [27]	14.1
NK-YS (IL-2 2.5 ng/mL) [21]	10.7
NKL (IL-2 2.5 ng/mL) [28]	17.1
SNK-6 (IL-2 2.5 ng/mL) [23]	10.6
YT (IL-2 2.5 ng/mL) [24]	14.1
[19]	7.91
[26]	4.47

CCN(c1cc(-c2ccc(CN3CCOCC3)cc2)cc(C(=O)NCc2c(C)cc(C)[nH]c2=O)c1C)C1CCOCC1 [E7438] (max concentration tested 10000 nM)
percent inhibition of viability [%]
Details	DERL-7 (IL-2 2.5 ng/mL) [15]	KAI3 (IL-2 2.5 ng/mL) [10]	KHYG-1 (IL-2 2.5 ng/mL) [12]	NK-92 (IL-2 2.5 ng/mL) [17]	NK-YS (IL-2 2.5 ng/mL) [11]	NKL (IL-2 2.5 ng/mL) [18]	SNK-6 (IL-2 2.5 ng/mL) [13]	YT (IL-2 2.5 ng/mL) [14]	[9]	[16]
1 nM	7.34	-4.36	-5.22	-6.98	-4.53	-13.6	1.4	-6.25	3.3	6.57
10 nM	4.06	3.43	-1.93	-6.59	-0.35	-3.23	5.22	-2.68	-9.28	-0.47
100 nM	9.96	0.88	0.98	11.7	5.89	3.68	2.14	0.66	3.33	9.19
1000 nM	1.71	-7.37	0.03	12.3	2.91	3.36	2.9	-5.62	-10.7	-13.6
10000 nM	11.7	-7.23	4.04	18	11.4	-3.21	-16.1	0.29	-1.96	3.73

Details	drug sensitivity score
DERL-7 (IL-2 2.5 ng/mL) [25]	0
KAI3 (IL-2 2.5 ng/mL) [20]	0
KHYG-1 (IL-2 2.5 ng/mL) [22]	0
NK-92 (IL-2 2.5 ng/mL) [27]	3.24
NK-YS (IL-2 2.5 ng/mL) [21]	0
NKL (IL-2 2.5 ng/mL) [28]	0
SNK-6 (IL-2 2.5 ng/mL) [23]	0
YT (IL-2 2.5 ng/mL) [24]	0
[19]	0
[26]	0

CCN(c1cc(-c2ccc(CN3CCOCC3)cc2)cc(C(=O)NCc2c(C)cc(C)[nH]c2=O)c1C)C1CCOCC1 [Tazemetostat] (max concentration tested 10000 nM)
percent inhibition of viability [%]
Details	1 nM	10 nM	100 nM	1000 nM	10000 nM
IMC-1 (IL-2 20 ng/mL) [3]	-6.56	0.55	-2.13	1.66	2.45
[1]	-1.54	2.17	-0.28	10.4	0.84
[2]	-7.19	-1.07	5.71	-5.28	7.6
[4]	-4.31	-2.24	8.29	-7.9	0.75

Details	drug sensitivity score
IMC-1 (IL-2 20 ng/mL) [6]	0
[5]	0
[7]	0
[8]	0

CON(C)C(=O)N1N=C(c2cc(F)ccc2F)S[C@@]1(CCCN)c1ccccc1 [ARRY-520] (max concentration tested 1000 nM)
percent inhibition of viability [%]
Details	DERL-7 (IL-2 2.5 ng/mL) [15]	KAI3 (IL-2 2.5 ng/mL) [10]	KHYG-1 (IL-2 2.5 ng/mL) [12]	NK-92 (IL-2 2.5 ng/mL) [17]	NK-YS (IL-2 2.5 ng/mL) [11]	NKL (IL-2 2.5 ng/mL) [18]	SNK-6 (IL-2 2.5 ng/mL) [13]	YT (IL-2 2.5 ng/mL) [14]	[9]	[16]
0.1 nM	-10.8	-7.27	-0.04	-13.1	-0.87	1.77	21	1.27	-14.6	-28.7
1 nM	1.72	-8.08	-0.06	-13.4	0.68	-1.49	12.7	1.15	-9.86	-37.1
10 nM	98.7	45.9	98.8	45.1	71.2	78.1	81.8	7.04	-12	-37.4
100 nM	100	49.6	107	92.3	77	93.3	88	65.3	2.21	-9.59
1000 nM	100	49.5	103	89.1	76.6	87.7	87.7	65.7	-7.49	-26.9

Details	drug sensitivity score
DERL-7 (IL-2 2.5 ng/mL) [25]	30.5
KAI3 (IL-2 2.5 ng/mL) [20]	14.6
KHYG-1 (IL-2 2.5 ng/mL) [22]	30.3
NK-92 (IL-2 2.5 ng/mL) [27]	22.4
NK-YS (IL-2 2.5 ng/mL) [21]	23.1
NKL (IL-2 2.5 ng/mL) [28]	26
SNK-6 (IL-2 2.5 ng/mL) [23]	27.8
YT (IL-2 2.5 ng/mL) [24]	13.2
[19]	0
[26]	0

CCCCCCCCCCCCCCCCCCOP(=O)([O-])OC1CC[N+](C)(C)CC1 [Perifosine] (max concentration tested 2500 nM)
percent inhibition of viability [%]
Details	0.25 nM	2.5 nM	25 nM	250 nM	2500 nM
IMC-1 (IL-2 20 ng/mL) [3]	-3.43	-7.43	0.31	2.67	10.9
[1]	-10.4	-4.12	-6.08	9.36	14
[2]	-4.58	-3.48	-0.26	4.53	7.26
[4]	-6.26	-5.2	0.44	3.24	9.26

Details	drug sensitivity score
IMC-1 (IL-2 20 ng/mL) [6]	0.06
[5]	0
[7]	0
[8]	0.73

CON(C)C(=O)N1N=C(c2cc(F)ccc2F)S[C@@]1(CCCN)c1ccccc1 [Filanesib] (max concentration tested 1000 nM)
percent inhibition of viability [%]
Details	0.1 nM	1 nM	10 nM	100 nM	1000 nM
IMC-1 (IL-2 20 ng/mL) [3]	0.48	0.61	99.5	100	99.5
[1]	5.43	2.85	56.5	56.8	56.8
[2]	-10.4	4.01	3.31	2.78	0.91
[4]	-8.61	0.04	1.29	2.17	-3.73

Details	drug sensitivity score
IMC-1 (IL-2 20 ng/mL) [6]	30.5
[5]	0
[7]	0
[8]	18.2

From the supplement of paper PMC5908809
